The term melting point denotes the temperature, or range, at which the solid turns liquid. In general, IC50 refers to the point on the concentration scale where inhibition reaches its midpoint.

Sequence of human BACE1 (P56817 46-501): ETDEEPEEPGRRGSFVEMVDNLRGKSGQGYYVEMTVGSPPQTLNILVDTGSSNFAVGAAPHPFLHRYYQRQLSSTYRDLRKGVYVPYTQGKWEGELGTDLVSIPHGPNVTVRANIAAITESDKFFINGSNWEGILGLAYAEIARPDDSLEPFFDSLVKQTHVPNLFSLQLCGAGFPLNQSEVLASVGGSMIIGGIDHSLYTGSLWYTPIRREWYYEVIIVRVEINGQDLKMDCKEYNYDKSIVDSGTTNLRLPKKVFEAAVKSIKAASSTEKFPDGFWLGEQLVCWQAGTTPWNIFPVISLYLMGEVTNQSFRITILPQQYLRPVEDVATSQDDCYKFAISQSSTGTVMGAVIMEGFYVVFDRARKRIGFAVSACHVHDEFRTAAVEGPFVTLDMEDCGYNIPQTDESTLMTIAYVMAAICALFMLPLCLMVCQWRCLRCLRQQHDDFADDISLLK

System in one data set: not given
Experiment: not given
Conditions: not given
Consider `NC(N)=NC(=O)Cn1c(C(=O)c2ccccc2)ccc1-c1ccccc1` [Example 455, N″-[(2-benzoyl-5-phenyl-1H-pyrrol-1-yl)acetyl]guanidine], for which the melting point was in the range of 201 to 203 °C. On the same count and under the same terms, under `N=C(N)NC(=O)Cn1c(C(=O)c2ccco2)ccc1-c1ccccc1` [Example 456] stands 175 to 177 °C.

Take `N=C(N)NC(=O)Cn1c(Cc2ccccc2)ccc1-c1ccccc1` [Example 458, N-[(2-benzyl-5-phenyl-1H-pyrrol-1-yl)acetyl]guanidine]: the melting point was 155 to 158 °C. In turn, `N=C(N)NC(=O)Cn1c(Cc2ccco2)ccc1-c1ccccc1` [Example 459, N-[amino(imino)methyl]-2-[2-(2-furylmethyl)-5-phenyl-1H-pyrrol-1-yl]acetamide] returned a melting point of 80 to 82 °C. Consider `N=C(N)NC(=O)Cn1c(Cc2cccs2)ccc1-c1ccccc1` [Example 460, N-[amino(imino)methyl]-2-[2-phenyl-5-(thien-2-ylmethyl)-1H-pyrrol-1-yl]acetamide], for which the melting point fell in the range of 99 to 120 °C.

Another data set addresses human BACE1 (Homo sapiens, UniProt P56817). The experiment in a line: Fluorescent kinetic assay, human BACE1 (FRET peptide substrate WABC-6).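 Note: fluorescence monitored at excitation 320 nm and emission 420 nm over 30 min, with the substrate cleavage rate taken as the linear slope of the signal.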 The class given is biochemical.
Conditions: not given
In turn, `N=C(NCc1cccc(N)c1)NC(=O)Cn1c(-c2ccccc2)ccc1C12CC3CC(CC(C3)C1)C2` [Example 421] had an IC50 of 0.11 to 1 µM.

Still in this data set, the particulars now being: fluorescent kinetic assay, 25 μM substrate WABC-6, pH 4.5, room temperature; read-out: IC50 (μM) BACE 1.
As for `CC(O)CNC(N)=NC(=O)Cn1c(-c2ccccc2)ccc1C12CC3CC(CC(C3)C1)C2` (stereo not shown) [Example 405], the IC50 was in the range of 0.11 to 1 µM. Take `N=C(NCC(O)CO)NC(=O)Cn1c(-c2ccccc2)ccc1C12CC3CC(CC(C3)C1)C2` (stereo not shown) [Example 406]: the IC50 lay within 0.11 to 1 µM. Consider `CC(C)CNC(N)=NC(=O)Cn1c(-c2ccccc2)ccc1C12CC3CC(CC(C3)C1)C2` [Example 407], for which the IC50 was in the range of 1.1 to 5 µM. With `NC(=NC(=O)Cn1c(-c2ccccc2)ccc1C12CC3CC(CC(C3)C1)C2)NCC(F)(F)F` [Example 408], the IC50 is 0.11 to 1 µM. For `CCOC(=O)CCCNC(N)=NC(=O)Cn1c(-c2ccccc2)ccc1C12CC3CC(CC(C3)C1)C2` [Example 409], the IC50 lay within 1.1 to 5 µM. In the case of `N=C(NCCCn1ccnc1)NC(=O)Cn1c(-c2ccccc2)ccc1C12CC3CC(CC(C3)C1)C2` [Example 413], the IC50 was in the range of 1.1 to 5 µM. For the compound `COCCCNC(N)=NC(=O)Cn1c(-c2ccccc2)ccc1C12CC3CC(CC(C3)C1)C2` [Example 414], the IC50 is 0.11 to 1 µM.

As to `COCCNC(N)=NC(=O)Cn1c(-c2ccccc2)ccc1C12CC3CC(CC(C3)C1)C2` [Example 415], the IC50 is 0.11 to 1 µM. `NC(=NC(=O)Cn1c(-c2ccccc2)ccc1C12CC3CC(CC(C3)C1)C2)NCC(F)(F)C(F)(F)F` [Example 416]: the IC50 is 0.11 to 1 µM.

Regarding `NC(=NC(=O)Cn1c(-c2ccccc2)ccc1C12CC3CC(CC(C3)C1)C2)NC1CCCCCC1` [Example 417], the IC50 was in the range of 0.11 to 1 µM. Still for that read-out and setting: under `C=CCNC(=O)c1ccc(-c2ccc(-c3ccccc3)n2CC(=O)N=C(N)NCc2nnc(C)o2)cc1` [Example 423] stands 0.11 to 1 µM; under `C=CCNC(=O)c1ccc(-c2ccc(-c3ccccc3)n2CC(=O)N=C(N)NCc2nc(C)cs2)cc1` [Example 424], 0.11 to 1 µM. Regarding `C=CCNC(=O)c1ccc(-c2ccc(-c3ccccc3)n2CC(=O)N=C(N)NCCc2cccs2)cc1` [Example 425], the IC50 fell in the range of 0.11 to 1 µM. For `C=CCNC(=O)c1ccc(-c2ccc(-c3ccccc3)n2CC(=O)N=C(N)NCc2cccc(N)c2)cc1` [Example 426], the IC50 was 0.11 to 1 µM. `CCS(=O)(=O)N/C(N)=N\C(=O)Cn1c(-c2ccccc2)ccc1C12CC3CC(CC(C3)C1)C2` [Example 431, 2-[2-(1-adamantyl)-5-phenyl-1H-pyrrol-1-yl]-N-{(1Z)-amino[(ethyl-sulfonyl)amino]methylene}acetamide]: the IC50 was in the range of 0.11 to 1 µM. Turning to `CCC(=O)c1ccc(-c2ccc(-c3ccccc3)n2CC(=O)NC(=N)N)cc1` [Example 447], the IC50 lay within 1.1 to 5 µM. For the compound `CCCCc1ccc(-c2ccc(-c3ccccc3)n2CC(=O)NC(=N)N)cc1` [Example 449], the IC50 lay in the range of 0.11 to 1 µM. For the compound `Cc1ccc(C)c(-c2ccc(-c3ccccc3)n2CC(=O)NC(=N)N)c1` [Example 450], the IC50 lay in the range of 0.11 to 1 µM.

With `N#CCc1ccc(-c2ccc(-c3ccccc3)n2CC(=O)NC(=N)N)cc1` [Example 451], the IC50 lay in the range of 1.1 to 5 µM. On to `N=C(N)NC(=O)Cn1c(-c2ccccc2)ccc1-c1ccccc1C(F)(F)F` [Example 452], for which the IC50 was in the range of 1.1 to 5 µM.

As to `N#CCc1cccc(-c2ccc(-c3ccccc3)n2CC(=O)NC(=N)N)c1` [Example 453], the IC50 lay within 1.1 to 5 µM. For the compound `N#CCCc1ccc(-c2ccc(-c3ccccc3)n2CC(=O)NC(=N)N)cc1` [Example 454], the IC50 was in the range of 1.1 to 5 µM. Turning to `CCNC(=O)c1ccc(-c2ccc(-c3ccccc3)n2CC(=O)NC(N)=NCCCO)cc1` [Example 461, N-Ethyl-4-(1-{2-[N′-(3-hydroxy-propyl)-guanidino]-2-oxo-ethyl}-5-phenyl-1H-pyrrol-2-yl)-benzamide], the IC50 lay in the range of 0.11 to 1 µM. `NC(=NC(=O)Cn1c(-c2ccccc2)ccc1-c1ccc(C(=O)NC2CC2)cc1)NCCCO` [Example 462]: the IC50 lay within 0.11 to 1 µM. In the case of `C=CCNC(=O)c1ccc(-c2ccc(-c3ccccc3)n2CC(=O)N=C(N)NCCCO)cc1` [Example 463], the 50% inhibitory concentration (IC50) fell in the range of 0.11 to 1 µM. As for `NC(=NC(=O)Cn1c(-c2ccccc2)ccc1-c1ccc(C(=O)NCCO)cc1)NCCCO` [Example 464], the IC50 is 0.11 to 1 µM.

Regarding `N#CCCNC(=O)c1ccc(-c2ccc(-c3ccccc3)n2CC(=O)N=C(N)NCCCO)cc1` [Example 465], the IC50 lay within 0.11 to 1 µM. For `CCCNC(=O)c1ccc(-c2ccc(-c3ccccc3)n2CC(=O)N=C(N)NCCCO)cc1` [Example 467], the IC50 lay in the range of 0.11 to 1 µM. As to `COCCNC(=O)c1ccc(-c2ccc(-c3ccccc3)n2CC(=O)N=C(N)NCCCO)cc1` [Example 468], the IC50 fell in the range of 0.11 to 1 µM. As to `CCC(C)NC(=O)c1ccc(-c2ccc(-c3ccccc3)n2CC(=O)N=C(N)NCCCO)cc1` (stereo not shown) [Example 469], the IC50 was in the range of 0.11 to 1 µM. As to `C=CCN(C)C(=O)c1ccc(-c2ccc(-c3ccccc3)n2CC(=O)N=C(N)NCCCO)cc1` [Example 470], the IC50 was in the range of 0.11 to 1 µM.

Turning to `NC(=NC(=O)Cn1c(-c2ccccc2)ccc1-c1ccc(C(=O)NCC(F)(F)C(F)(F)F)cc1)NCCCO` [Example 472], the IC50 lay in the range of 1.1 to 5 µM.

For `CCC[C@H]1CC[C@H](c2ccc(-c3ccccc3)n2CC(=O)/N=C(\N)NCCCC#N)CC1` [Example 473, N-{(1E)-amino[(3-cyanopropyl)amino]methylene}-2-[2-phenyl-5-(trans-4-propylcyclohexyl)-1H-pyrrol-1-yl]acetamide], the IC50 lay within 1.1 to 5 µM. Regarding `N#CCCCNC(=N)NC(=O)Cn1c(-c2ccccc2)ccc1C1CCCCC1` [Example 474, N-(3-Cyano-propyl)-N′-[2-(2-cyclohexyl-5-phenyl-pyrrol-1-yl)-acetyl]-guanidine], the IC50 fell in the range of 1.1 to 5 µM.

Source of the values: US7488832B2, “Azolylacylguanidines as β-secretase inhibitors” (Wyeth, priority 2005, dated 2009).
